Assay: xn = mol fraction of the nth substance listed

CCCC[n+]1ccn(C)c1.O=[N+]([O-])[O-] + O
Details	viscosity [mPa·s]
295.15 K, 101 kPa, x2 = 0.1659	73
308 K, 100 kPa, x1 = 0.4463	14.67
308 K, 100 kPa, x1 = 0.6298	29.49
313 K, 100 kPa, x1 = 0.05634	1.464
313 K, 100 kPa, x1 = 0.08219	2.196
313 K, 100 kPa, x1 = 0.2637	6.31

CCCOCCn1cc[n+](C)c1.O=S(=O)([N-]S(=O)(=O)C(F)(F)F)C(F)(F)F + O
101 kPa, x1 = 0.8306
Details	viscosity [mPa·s]
283 K	78.3
298.1 K	38.7

CCOS(=O)(=O)[O-].CC[N+]1(C)CCCCC1 + O
101 kPa
Details	viscosity [mPa·s]
298.15 K, x2 = 0.1867	690
298.15 K, x2 = 0.5338	97
298.15 K, x2 = 0.894	7.4
303.15 K, x2 = 0.894	6.2
308.15 K, x2 = 0	800
308.15 K, x2 = 0.4417	92
308.15 K, x2 = 0.8593	7.7
313.15 K, x2 = 0.4417	71
313.15 K, x2 = 0.8593	6.5
318.15 K, x2 = 0.3409	90
323.15 K, x2 = 0.2704	93
323.15 K, x2 = 0.7839	8.8
328.15 K, x2 = 0.2704	73
328.15 K, x2 = 0.7839	7.5
333.15 K, x2 = 0.1867	80
333.15 K, x2 = 0.7357	8.6
338.15 K, x2 = 0.1867	65
338.15 K, x2 = 0.7357	7.5
343.15 K, x2 = 0	100
343.15 K, x2 = 0.7357	6.8

CCOS(=O)(=O)[O-].CC[n+]1ccn(C)c1 + O
Details	electrical conductivity [S/m]	viscosity [mPa·s]
283.15 K, 101 kPa, x2 = 0.1966	–	136.9
283.15 K, 101 kPa, x2 = 0.6124	–	32.65
288.15 K, 100 kPa, x1 = 0.0005131	–	1.163
288.15 K, 100 kPa, x1 = 0.0008362	–	1.177
288.15 K, 100 kPa, x1 = 0.001227	–	1.193
288.15 K, 100 kPa, x1 = 0.002025	–	1.227
288.15 K, 100 kPa, x1 = 0.002516	–	1.25
288.15 K, 100 kPa, x1 = 0.003482	–	1.292
288.15 K, 100 kPa, x1 = 0.00456	–	1.342
288.15 K, 100 kPa, x1 = 0.006613	–	1.426
288.15 K, 100 kPa, x1 = 0.008007	–	1.491
288.15 K, 100 kPa, x1 = 0.009969	–	1.577
288.15 K, 100 kPa, x1 = 0.01406	–	1.777
288.15 K, 100 kPa, x1 = 0.0162	–	1.889
293.15 K, 100 kPa, x1 = 0.0005131	–	1.012
293.15 K, 100 kPa, x1 = 0.0008362	–	1.024
293.15 K, 100 kPa, x1 = 0.002516	–	1.092
293.15 K, 100 kPa, x1 = 0.003482	–	1.129
293.15 K, 100 kPa, x1 = 0.00456	–	1.171
293.15 K, 100 kPa, x1 = 0.006613	–	1.247
293.15 K, 100 kPa, x1 = 0.008007	–	1.295
293.15 K, 100 kPa, x1 = 0.009969	–	1.365
293.15 K, 100 kPa, x1 = 0.01406	–	1.508
293.15 K, 100 kPa, x1 = 0.0162	–	1.597
293.15 K, 101 kPa, x2 = 0.0023	–	133.9
293.15 K, 101 kPa, x2 = 0.1225	–	99.1
298.15 K, 100 kPa, x1 = 0.0005131	–	0.9026
298.15 K, 100 kPa, x1 = 0.0008362	–	0.9136
298.15 K, 100 kPa, x1 = 0.001227	–	0.929
298.15 K, 100 kPa, x1 = 0.002025	–	0.9545
298.15 K, 100 kPa, x1 = 0.002516	–	0.9707
298.15 K, 100 kPa, x1 = 0.003482	–	1.004
298.15 K, 100 kPa, x1 = 0.00456	–	1.039
298.15 K, 100 kPa, x1 = 0.006613	–	1.1
298.15 K, 100 kPa, x1 = 0.008007	–	1.141
298.15 K, 100 kPa, x1 = 0.009969	–	1.201
298.15 K, 100 kPa, x1 = 0.01406	–	1.322
298.15 K, 100 kPa, x1 = 0.0162	–	1.392
298.15 K, 101 kPa, x1 = 0.003	0.74	–
298.15 K, 101 kPa, x1 = 0.047	4	–
298.15 K, 101 kPa, x2 = 0.1608	–	70
298.15 K, 101.3 kPa, x1 = 0.01871	3.26	–
298.15 K, 101.3 kPa, x2 = 0	0.398	–
298.15 K, 101.3 kPa, x2 = 0.8489	3.85	–
298.15 K, 101.3 kPa, x2 = 0.9291	4.45	–
298.15 K, 101.3 kPa, x2 = 0.9684	3.95	–
298.15 K, 101.3 kPa, x2 = 0.9752	3.66	–
303.15 K, 100 kPa, x1 = 0.0005131	–	0.8072
303.15 K, 100 kPa, x1 = 0.0008362	–	0.8175
303.15 K, 100 kPa, x1 = 0.001227	–	0.8288
303.15 K, 100 kPa, x1 = 0.002025	–	0.8498
303.15 K, 100 kPa, x1 = 0.002516	–	0.8628
303.15 K, 100 kPa, x1 = 0.003482	–	0.8878
303.15 K, 100 kPa, x1 = 0.00456	–	0.9163
303.15 K, 100 kPa, x1 = 0.006613	–	0.9752
303.15 K, 100 kPa, x1 = 0.008007	–	1.01
303.15 K, 100 kPa, x1 = 0.01406	–	1.156
308.15 K, 100 kPa, x1 = 0.0005131	–	0.7285
308.15 K, 100 kPa, x1 = 0.0008362	–	0.7368
308.15 K, 100 kPa, x1 = 0.001227	–	0.7453
308.15 K, 100 kPa, x1 = 0.002025	–	0.7648
308.15 K, 100 kPa, x1 = 0.002516	–	0.774
308.15 K, 100 kPa, x1 = 0.003482	–	0.7947
308.15 K, 100 kPa, x1 = 0.00456	–	0.8202
308.15 K, 100 kPa, x1 = 0.006613	–	0.8682
308.15 K, 100 kPa, x1 = 0.008007	–	0.8953
308.15 K, 100 kPa, x1 = 0.009969	–	0.9332
308.15 K, 100 kPa, x1 = 0.01406	–	1.02
308.15 K, 100 kPa, x1 = 0.0162	–	1.066
313.15 K, 100 kPa, x1 = 0.0005131	–	0.6616
313.15 K, 100 kPa, x1 = 0.0008362	–	0.669
313.15 K, 100 kPa, x1 = 0.001227	–	0.6761
313.15 K, 100 kPa, x1 = 0.002025	–	0.6922
313.15 K, 100 kPa, x1 = 0.002516	–	0.7008
313.15 K, 100 kPa, x1 = 0.003482	–	0.7189
313.15 K, 100 kPa, x1 = 0.00456	–	0.7368
313.15 K, 100 kPa, x1 = 0.006613	–	0.7779
313.15 K, 100 kPa, x1 = 0.008007	–	0.8031
313.15 K, 100 kPa, x1 = 0.009969	–	0.8366
313.15 K, 100 kPa, x1 = 0.01406	–	0.9075
313.15 K, 100 kPa, x1 = 0.0162	–	0.9429
313.15 K, 101 kPa, x1 = 0.003	0.97	–
313.15 K, 101 kPa, x1 = 0.008	2.5	–
313.15 K, 101 kPa, x1 = 0.013	3.4	–
313.15 K, 101 kPa, x1 = 0.019	3.9	–
313.15 K, 101 kPa, x1 = 0.151	4.7	–
313.15 K, 101 kPa, x1 = 0.642	1.4	–
318.15 K, 100 kPa, x1 = 0.0005131	–	0.6014
318.15 K, 100 kPa, x1 = 0.0008362	–	0.6088
318.15 K, 100 kPa, x1 = 0.001227	–	0.6154
318.15 K, 100 kPa, x1 = 0.002025	–	0.6285
318.15 K, 100 kPa, x1 = 0.002516	–	0.6341
318.15 K, 100 kPa, x1 = 0.003482	–	0.6498
318.15 K, 100 kPa, x1 = 0.00456	–	0.6693
318.15 K, 100 kPa, x1 = 0.006613	–	0.6989
318.15 K, 100 kPa, x1 = 0.008007	–	0.7189
318.15 K, 100 kPa, x1 = 0.009969	–	0.7489
318.15 K, 100 kPa, x1 = 0.01406	–	0.8092
318.15 K, 100 kPa, x1 = 0.0162	–	0.8249
323.15 K, 100 kPa, x1 = 0.0005131	–	0.5543
323.15 K, 100 kPa, x1 = 0.0008362	–	0.5575
323.15 K, 100 kPa, x1 = 0.001227	–	0.5629
323.15 K, 100 kPa, x1 = 0.002025	–	0.5726
323.15 K, 100 kPa, x1 = 0.002516	–	0.5798
323.15 K, 100 kPa, x1 = 0.003482	–	0.592
323.15 K, 100 kPa, x1 = 0.00456	–	0.6071
323.15 K, 100 kPa, x1 = 0.006613	–	0.6309
323.15 K, 100 kPa, x1 = 0.008007	–	0.6496
323.15 K, 100 kPa, x1 = 0.009969	–	0.672
323.15 K, 100 kPa, x1 = 0.01406	–	0.7192
323.15 K, 100 kPa, x1 = 0.0162	–	0.7349
323.15 K, 101 kPa, x2 = 0.427	–	14.57
328.15 K, 100 kPa, x1 = 0.0005131	–	0.5096
328.15 K, 100 kPa, x1 = 0.0008362	–	0.5125
328.15 K, 100 kPa, x1 = 0.001227	–	0.5161
328.15 K, 100 kPa, x1 = 0.002025	–	0.5251
328.15 K, 100 kPa, x1 = 0.002516	–	0.5307
328.15 K, 100 kPa, x1 = 0.003482	–	0.5404
328.15 K, 100 kPa, x1 = 0.00456	–	0.5521
328.15 K, 100 kPa, x1 = 0.006613	–	0.5713
343.15 K, 101 kPa, x2 = 0.0023	–	19.63
343.15 K, 101 kPa, x2 = 0.1966	–	14.47
343.15 K, 101 kPa, x2 = 0.427	–	8.918

CC[n+]1ccn(C)c1.F[P-](F)(F)(F)(F)F + O
viscosity [mPa·s], 100 kPa
Details	298.15 K	303.15 K	308.15 K
x1 = 1.802e-05	0.919	0.85	0.777
x1 = 5.406e-05	0.933	0.855	0.782
x1 = 9.009e-05	0.948	0.86	0.787

CC[n+]1ccn(C)c1.[Br-] + O
viscosity [mPa·s], 100 kPa
Details	288.15 K	298.15 K	303.15 K	308.15 K	318.15 K	333.15 K
x1 = 0.0001802	1.141	0.911	–	0.744	0.627	–
x1 = 0.0007203	1.147	0.916	–	0.748	0.632	–
x1 = 0.00126	1.152	0.923	–	0.754	0.639	–
x1 = 0.049	–	–	1.48	–	–	0.797
x1 = 0.1978	–	–	5.45	–	–	–

— the CheMixHub ionic liquid set
